Measurements published in PubChem BioAssay AID2060504 (Molecular Pharmacology Branch, DTP, NCI, 2025).
pIC50: −log10 of the molar value.

System: 636577-100-R-J1-PDC complex spheroid viability
Experiment: Anticancer human tumor 636577-100-R-J1-PDC patient-derived endometrial adenocarcinoma cell line growth inhibition [GQUAD]
Details: for pIC50: curve of first compound; for viability, T/C: stronger effect = lower value
Method in brief: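 Multi-cell-type spheroids of tumor cells with HUVEC and mesenchymal stem cells, treated with drug combinations. Concentrations descend in half-log steps from near clinical Cmax, or from 10 microM where Cmax is unknown; viability read-out.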
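Also: viability read after seven days of drug exposure.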
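For viability, T/C in this document: luminescence signal used as a proxy for viable cells; 100% = DMSO vehicle control wells.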

COc1ncnc(C2CC2)c1-c1ncc2cnn(Cc3ccc(-c4nc(C(F)(F)F)cn4C(C)C)cc3)c2n1 + Cc1cnc(CNC(=O)c2c(=O)c3ccc(N4CCCN(C)CC4)nc3n3c2sc2ccccc23)cn1
pIC50 (second compound 0.0316 µM): > 7.50
pIC50 (second compound 0.1 µM): > 7.50
pIC50 (second compound 0.316 µM): > 7.50
pIC50 (second compound 1 µM): > 7.50
pIC50 (second compound 3.16 µM): > 7.50
pIC50 (second compound 10 µM): > 7.50
viability, T/C (second compound 0.0316 µM, first compound 0.0316 µM): 37.8%
viability, T/C (second compound 0.0316 µM, first compound 0.1 µM): 36%
viability, T/C (second compound 0.0316 µM, first compound 0.316 µM): 42.7%
viability, T/C (second compound 0.0316 µM, first compound 1 µM): 32.1%
viability, T/C (second compound 0.0316 µM, first compound 3.16 µM): 37.7%
viability, T/C (second compound 0.0316 µM, first compound 10 µM): 31.4%
viability, T/C (second compound 0.1 µM, first compound 0.0316 µM): 29.7%
viability, T/C (second compound 0.1 µM, first compound 0.1 µM): 26.2%
viability, T/C (second compound 0.1 µM, first compound 0.316 µM): 29.4%
viability, T/C (second compound 0.1 µM, first compound 1 µM): 25.2%
viability, T/C (second compound 0.1 µM, first compound 3.16 µM): 28%
viability, T/C (second compound 0.1 µM, first compound 10 µM): 27.4%
viability, T/C (second compound 0.316 µM, first compound 0.0316 µM): 24.2%
viability, T/C (second compound 0.316 µM, first compound 0.1 µM): 24.7%
viability, T/C (second compound 0.316 µM, first compound 0.316 µM): 25.8%
viability, T/C (second compound 0.316 µM, first compound 1 µM): 21.6%
viability, T/C (second compound 0.316 µM, first compound 3.16 µM): 25.2%
viability, T/C (second compound 0.316 µM, first compound 10 µM): 24.5%
viability, T/C (second compound 1 µM, first compound 0.0316 µM): 19.5%
viability, T/C (second compound 1 µM, first compound 0.1 µM): 18.5%
viability, T/C (second compound 1 µM, first compound 0.316 µM): 22%
viability, T/C (second compound 1 µM, first compound 1 µM): 20.4%
viability, T/C (second compound 1 µM, first compound 3.16 µM): 25.4%
viability, T/C (second compound 1 µM, first compound 10 µM): 22.6%
viability, T/C (second compound 3.16 µM, first compound 0.0316 µM): 16.3%
viability, T/C (second compound 3.16 µM, first compound 0.1 µM): 21.4%
viability, T/C (second compound 3.16 µM, first compound 0.316 µM): 22.7%
viability, T/C (second compound 3.16 µM, first compound 1 µM): 17.4%
viability, T/C (second compound 3.16 µM, first compound 3.16 µM): 25.9%
viability, T/C (second compound 3.16 µM, first compound 10 µM): 19.2%
viability, T/C (second compound 10 µM, first compound 0.0316 µM): 20.8%
viability, T/C (second compound 10 µM, first compound 0.1 µM): 20%
viability, T/C (second compound 10 µM, first compound 0.316 µM): 23.5%
viability, T/C (second compound 10 µM, first compound 1 µM): 18.3%
viability, T/C (second compound 10 µM, first compound 3.16 µM): 23.7%
viability, T/C (second compound 10 µM, first compound 10 µM): 22%
